Values quoted from earlier work as cited in patent US20090241221A1, “TANDEM REAPEAT DNA CONSTRUCTS PRODUCING PROTEINS THAT ATTACK PLANT PATHOGENIC VIRUSES, FUNGI, AND BACTERIA BY DISRUPTING TRANSCRIPTION FACTORS ESSENTIAL FOR REPLICATION THEREOF IN PLANTS” (priority 2008, published 2009).

Tested on: Magnaporthe grisea
Conditions: PA treated plants; doses in the range of 0.5 mg/mL; cited from earlier work

For `O=C(O)c1ccccn1` [picolinic acid, 2-pyridine carboxylic acid], the “resistance against M. grisea” value is given as “enhanced”.
